From patent US20260317344A1, “EGFR INHIBITORS FOR TREATING DISEASE” (BLOSSOMHILL THERAPEUTICS, INC., priority 2023, published 2026)

Key:
Format in all cases: cell-based
[1] = test system: BaF3 cells with engineered EGFR d746-750/T790M; test: 3-Day CellTiter Glo (CTG) cell proliferation assay, BaF3 EGFR d746-750/T790M; settings: Mus musculus; BaF3 EGFR d746-750/T790M cells, 3-day CTG proliferation, 72 hours
Experimental: (§1) 3-DAY CellTiter Glo (CTG) Cell Proliferation Assays (BaF3 Cell Lines)
(§2) Cell proliferation assays were carried out in BaF3 cells engineered with EGFR mutations. BaF3 cells with engineered EGFR L858R/T790M/C797S, EGFR L858R/C797S, or EGFR d746-750/T790M transgene, one thousand cells/50 μL per well were seeded in white 384-well plate, followed by treatment with indicated compounds in a 9-dose dilution series using TECAN d300e liquid dispenser. Cells were incubated with compounds for 72 hours at 37° C. and 5% CO2. Cell proliferation was measured using CellTiter-Gbo 2.0 luciferase-based ATP detection assay (Promega, Madison, WI) at 18 μL per well following the manufacturer's protocol. Plates were then read on a TECAN Sparks multimode microplate reader. Data was analyzed using GraphPad Prism 9 (GraphiPad Software, San Diego, CA) to obtain IC50 values.

NCI-H1975 cells = test: 5-Day CellTiter Glo (CTG) cell proliferation assay, NCI-H1975; settings: Homo sapiens; NCI-H1975 cells (L858R/T790M EGFR), 5-day CTG proliferation, 120 hours; read-out: H1975 IC50
Summary of the method: (§3)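 Proliferation of EGFR-driven NSCLC cells was scored as CellTiter-Glo 2.0 luminescence after a 5-day (120 h) incubation with compounds in 9 doses. IC50 values came from the dose-response curves.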

PC-9 cells = test: 5-Day CellTiter Glo (CTG) cell proliferation assay, PC-9; settings: Homo sapiens; PC-9 cells (d746-750 EGFR), 5-day CTG proliferation, 120 hours; read-out: PC-9 IC50
Summary of the method: as §3

[2] = test system: BaF3 cells with engineered EGFR L858R/C797S; test: 3-Day CellTiter Glo (CTG) cell proliferation assay, BaF3 EGFR L858R/C797S; settings: Mus musculus, 3-day CTG proliferation, 72 hours
Experimental: as §1, §2

[3] = molecular target: T1, pEGFR, PC-9 cells (d746-750 EGFR) (Homo sapiens, UniProt P00533, DEL746-750); test: Cellular EGFR phosphorylation assay (LANCE Ultra TR-FRET) in PC-9 cells; settings: 4 hours at 37° C., read-out: PC-9 pEGFR IC50
T1 construct: pEGFR (Tyr1068) TR-FRET
Summary of the method: (§4)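 4 h compound treatment at 37 °C, 9-point 3-fold titration. EGF (40 ng/mL, final 10 min) in A431 only. Tyr1068 phosphorylation measured by TR-FRET and IC50 fitted.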

[4] = molecular target: T2, pEGFR, A431 cells (wildtype EGFR) (Homo sapiens, UniProt P00533); test: Cellular EGFR phosphorylation assay (LANCE Ultra TR-FRET) in A431 cells; settings: 4 hours at 37° C., 40 ng/mL EGF for the final 10 minutes, read-out: A431 pEGFR IC50
T2 construct: pEGFR (Tyr1068) TR-FRET
Summary of the method: as §4

[5] = molecular target: T3, pEGFR, NCI-H1975 cells (L858R/T790M EGFR) (Homo sapiens, UniProt P00533, L858R/T790M); test: Cellular EGFR phosphorylation assay (LANCE Ultra TR-FRET) in NCI-H1975 cells; settings: 4 hours at 37° C., read-out: H1975 pEGFR IC50
T3 construct: pEGFR (Tyr1068) TR-FRET
Summary of the method: as §4

[6] = test system: BaF3 cells with engineered EGFR L858R/T790M/C797S; test: 3-Day CellTiter Glo (CTG) cell proliferation assay, BaF3 EGFR L858R/T790M/C797S; settings: Mus musculus, 3-day CTG proliferation, 72 hours
Summary of the method: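 Viability after 72 h compound exposure (9 concentrations, 37° C, 5% CO2) was measured as ATP luminescence with CellTiter-Glo 2.0 in EGFR-mutant-engineered BaF3 cells plated at one thousand cells per well. IC50 values obtained by curve fitting.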

HCC827 cells = test: 5-Day CellTiter Glo (CTG) cell proliferation assay, HCC827; settings: Homo sapiens; HCC827 cells (d746-750 EGFR), 5-day CTG proliferation, 120 hours; read-out: HCC827 IC50
Summary of the method: as §3

T3 sequence (P00533 25-1210 T790M/L858R): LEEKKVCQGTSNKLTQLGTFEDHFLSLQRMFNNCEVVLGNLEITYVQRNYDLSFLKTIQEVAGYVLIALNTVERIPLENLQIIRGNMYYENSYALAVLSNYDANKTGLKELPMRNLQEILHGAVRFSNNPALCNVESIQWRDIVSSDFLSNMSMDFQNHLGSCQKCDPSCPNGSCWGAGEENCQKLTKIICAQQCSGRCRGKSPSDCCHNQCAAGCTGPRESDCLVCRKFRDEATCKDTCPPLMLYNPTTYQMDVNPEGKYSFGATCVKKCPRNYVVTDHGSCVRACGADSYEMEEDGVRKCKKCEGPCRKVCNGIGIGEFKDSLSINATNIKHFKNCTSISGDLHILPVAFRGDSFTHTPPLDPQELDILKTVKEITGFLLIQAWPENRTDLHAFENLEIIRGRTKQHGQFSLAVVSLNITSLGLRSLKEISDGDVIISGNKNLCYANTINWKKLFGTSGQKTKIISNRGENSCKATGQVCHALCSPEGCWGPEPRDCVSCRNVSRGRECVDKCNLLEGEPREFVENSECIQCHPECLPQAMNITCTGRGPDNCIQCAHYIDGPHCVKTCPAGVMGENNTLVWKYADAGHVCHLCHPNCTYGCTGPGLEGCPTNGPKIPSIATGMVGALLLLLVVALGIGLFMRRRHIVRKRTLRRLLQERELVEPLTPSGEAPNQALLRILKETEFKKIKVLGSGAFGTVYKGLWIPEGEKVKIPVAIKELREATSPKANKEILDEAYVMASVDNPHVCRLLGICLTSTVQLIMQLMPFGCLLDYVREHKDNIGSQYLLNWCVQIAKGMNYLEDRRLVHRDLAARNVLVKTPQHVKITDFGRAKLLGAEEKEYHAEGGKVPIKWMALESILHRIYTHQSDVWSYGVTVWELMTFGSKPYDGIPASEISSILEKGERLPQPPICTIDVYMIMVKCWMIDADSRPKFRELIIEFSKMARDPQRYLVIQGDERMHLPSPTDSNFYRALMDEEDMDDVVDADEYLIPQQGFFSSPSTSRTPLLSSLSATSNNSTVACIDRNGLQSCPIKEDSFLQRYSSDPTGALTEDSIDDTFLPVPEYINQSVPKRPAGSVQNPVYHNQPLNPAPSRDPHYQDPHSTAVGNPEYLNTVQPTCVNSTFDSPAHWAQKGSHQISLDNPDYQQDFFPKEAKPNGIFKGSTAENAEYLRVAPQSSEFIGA
T1 sequence (P00533 with tags, fused parts or gaps DEL746-750): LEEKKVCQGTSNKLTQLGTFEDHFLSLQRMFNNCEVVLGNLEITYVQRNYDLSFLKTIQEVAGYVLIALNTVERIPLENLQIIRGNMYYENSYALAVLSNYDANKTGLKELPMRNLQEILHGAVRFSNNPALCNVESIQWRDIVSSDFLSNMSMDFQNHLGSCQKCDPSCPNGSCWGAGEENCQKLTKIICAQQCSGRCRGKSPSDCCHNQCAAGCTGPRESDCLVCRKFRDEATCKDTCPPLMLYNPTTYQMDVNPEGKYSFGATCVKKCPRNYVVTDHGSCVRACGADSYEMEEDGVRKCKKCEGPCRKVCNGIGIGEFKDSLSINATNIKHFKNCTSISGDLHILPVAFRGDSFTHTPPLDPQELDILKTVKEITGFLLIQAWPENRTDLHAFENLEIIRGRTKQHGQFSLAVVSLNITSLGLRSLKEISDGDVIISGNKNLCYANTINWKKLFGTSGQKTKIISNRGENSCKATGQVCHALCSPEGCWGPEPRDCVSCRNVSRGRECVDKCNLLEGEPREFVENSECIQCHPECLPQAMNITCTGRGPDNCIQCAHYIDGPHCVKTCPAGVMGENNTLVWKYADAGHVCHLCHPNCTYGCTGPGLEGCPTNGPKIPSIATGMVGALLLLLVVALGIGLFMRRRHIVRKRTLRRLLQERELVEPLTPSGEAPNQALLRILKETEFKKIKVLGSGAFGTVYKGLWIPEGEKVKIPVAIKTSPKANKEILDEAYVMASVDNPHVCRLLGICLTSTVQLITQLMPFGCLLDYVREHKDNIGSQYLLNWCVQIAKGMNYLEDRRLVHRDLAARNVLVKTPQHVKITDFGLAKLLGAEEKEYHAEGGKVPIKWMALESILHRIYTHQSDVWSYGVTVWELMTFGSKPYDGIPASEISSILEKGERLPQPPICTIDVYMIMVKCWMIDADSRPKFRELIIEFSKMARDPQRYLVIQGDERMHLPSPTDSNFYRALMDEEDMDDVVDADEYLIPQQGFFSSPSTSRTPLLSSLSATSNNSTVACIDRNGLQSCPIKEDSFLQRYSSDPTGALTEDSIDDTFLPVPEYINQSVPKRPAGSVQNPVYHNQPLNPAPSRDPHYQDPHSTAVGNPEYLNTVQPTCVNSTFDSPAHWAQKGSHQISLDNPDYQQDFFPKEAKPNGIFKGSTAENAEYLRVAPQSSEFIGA
T2 sequence (P00533 25-1210): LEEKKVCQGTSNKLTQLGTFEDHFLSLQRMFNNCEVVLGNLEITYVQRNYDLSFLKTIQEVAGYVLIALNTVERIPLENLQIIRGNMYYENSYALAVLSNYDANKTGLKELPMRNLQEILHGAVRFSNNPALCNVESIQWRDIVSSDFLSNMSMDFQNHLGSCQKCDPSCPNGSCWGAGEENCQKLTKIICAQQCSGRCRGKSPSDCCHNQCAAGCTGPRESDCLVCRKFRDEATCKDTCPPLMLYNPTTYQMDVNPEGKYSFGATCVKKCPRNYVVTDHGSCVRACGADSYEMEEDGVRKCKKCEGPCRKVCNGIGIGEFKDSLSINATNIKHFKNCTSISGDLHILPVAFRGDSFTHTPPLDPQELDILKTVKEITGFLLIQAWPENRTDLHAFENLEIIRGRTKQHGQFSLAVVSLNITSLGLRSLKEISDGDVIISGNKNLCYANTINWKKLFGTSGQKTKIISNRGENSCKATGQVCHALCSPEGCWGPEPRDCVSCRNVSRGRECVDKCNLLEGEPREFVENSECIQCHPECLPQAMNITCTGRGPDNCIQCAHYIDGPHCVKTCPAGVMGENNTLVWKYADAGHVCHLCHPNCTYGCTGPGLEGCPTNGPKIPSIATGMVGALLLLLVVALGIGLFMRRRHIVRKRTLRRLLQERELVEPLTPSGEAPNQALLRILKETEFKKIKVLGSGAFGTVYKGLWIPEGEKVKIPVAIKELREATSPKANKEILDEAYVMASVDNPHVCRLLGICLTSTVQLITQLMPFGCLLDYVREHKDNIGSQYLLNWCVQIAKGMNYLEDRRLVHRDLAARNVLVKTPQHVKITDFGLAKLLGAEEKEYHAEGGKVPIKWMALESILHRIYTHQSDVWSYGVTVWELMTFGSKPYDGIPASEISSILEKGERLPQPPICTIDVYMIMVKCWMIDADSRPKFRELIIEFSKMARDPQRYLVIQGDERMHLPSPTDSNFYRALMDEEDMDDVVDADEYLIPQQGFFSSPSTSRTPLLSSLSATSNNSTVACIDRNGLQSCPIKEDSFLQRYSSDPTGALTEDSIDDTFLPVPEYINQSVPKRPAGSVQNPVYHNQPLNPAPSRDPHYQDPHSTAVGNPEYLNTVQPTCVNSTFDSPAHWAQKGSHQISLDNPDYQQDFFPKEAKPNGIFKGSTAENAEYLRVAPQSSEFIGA

| SMILES | IC50 [1] [nM] | IC50 (NCI-H1975 cells) [nM] | IC50 (PC-9 cells) [nM] | IC50 [2] [nM] | IC50 [3] [nM] | IC50 [4] [nM] | IC50 [5] [nM] | IC50 [6] [nM] | IC50 (HCC827 cells) [nM] |
| --- | --- | --- | --- | --- | --- | --- | --- | --- | --- |
| CNc1nn([C@@H](C)CO)c2c1/C=C/c1n[nH]c3c(C)nc(cc13)-c1c(C)nn(C)c1O[C@@H](C)CN(C)C2 [Ex. 101, (2S)-2-[(10S,17E)-6,8,10,12,20-pentamethyl-16-(methylamino)-2,8,10,11,12,13-hexahydro-14H-5,3-(azenometheno)tripyrazolo[3,4-f:3′,4′-j:4″,3″-n][1,4]oxazacyclopentadecin-14-yl]propan-1-ol] | 4.36 | 3.6 | 8.86 | 0.2 | 4.17 | 34.7 | 2.68 | 1.37 | 1.05 |
| CCOc1nn(CCO)c2c1/C=C/c1n[nH]c3c(C)nc(cc13)-c1c(C)nn(C)c1OCCN(C)C2 [Ex. 75, 2-[(17E)-16-ethoxy-6,8,12,20-tetramethyl-2,8,10,11,12,13-hexahydro-14H-5,3-(azenometheno)tripyrazolo[3,4-f:3′,4′-j:4″,3″-n][1,4]oxazacyclopentadecin-14-yl]ethan-1-ol] | 203 | 74 | 43.1 | 0.22 | 15 | 53.7 | 7.41 | 2.94 | 10.6 |
| CCOc1nn([C@@H](C)CO)c2c1/C=C/c1n[nH]c3c(C)nc(cc13)-c1c(C)nn(C)c1O[C@@H](C)CNC2 [Ex. 91, (2S)-2-[(10S,17E)-16-ethoxy-6,8,10,20-tetramethyl-2,8,10,11,12,13-hexahydro-14H-5,3-(azenometheno)tripyrazolo[3,4-f:3′,4′-j:4″,3″-n][1,4]oxazacyclopentadecin-14-yl]propan-1-ol] | 45.7 | 57 | 63 | 9.29 | 69.5 | 34.8 | 21.3 | 17.2 | 16.8 |
| CCOc1nn(CCO)c2c1/C=C/c1n[nH]c3cnc(cc13)-c1c(C)nn(C)c1O[C@@H](C)CN(C1CC1)C2 [Ex. 113, 2-[(10S,17E)-12-cyclopropyl-16-ethoxy-6,8,10-trimethyl-2,8,10,11,12,13-hexahydro-14H-5,3-(azenometheno)tripyrazolo[3,4-f:3′,4′-j:4″,3″-n][1,4]oxazacyclopentadecin-14-yl]ethan-1-ol] | 1.18 | 1.4 | 0.68 | 0.11 | 1.98 | 11.1 | 1.58 | 0.91 | 0.45 |
| CCOc1nn([C@@H](C)CO)c2c1/C=C/c1n[nH]c3c(C)nc(cc13)-c1c(C)nn(C)c1O[C@H](C)CN(C)C2 [Ex. 98] | 1.01 | 3.34 | 5.71 | 0.24 | 3.62 | 16.8 | 1.9 | 0.74 | 1.35 |
| Cc1nn(C)c2c1/C=C/c1n[nH]c3c(C)nc(cc13)-c1c(C)nn(C)c1O[C@@H](C)CN(C(C)C)C2 [Ex. 106, (10S,17E)-6,8,10,14,16,20-hexamethyl-12-(propan-2-yl)-2,10,11,12,13,14-hexahydro-8H-5,3-(azenometheno)tripyrazolo[3,4-f:3′,4′-j:4″,3″-n][1,4]oxazacyclopentadecine] | 4.75 | 7.92 | 14.6 | 1.37 | 9 | 10.2 | 3.03 | 3.41 | 2.18 |
| CCNc1nn([C@@H](C)CO)c2c1/C=C/c1n[nH]c3cnc(cc13)-c1c(C)nn(C)c1O[C@@H](C)CN(C)C2 [Ex. 93, (2S)-2-[(10S,17E)-16-(ethylamino)-6,8,10,12-tetramethyl-2,8,10,11,12,13-hexahydro-14H-5,3-(azenometheno)tripyrazolo[3,4-f:3′,4′-j:4″,3″-n][1,4]oxazacyclopentadecin-14-yl]propan-1-ol] | 1.8 | 2 | 1.98 | 0.13 | 2.05 | 19.6 | 3.54 | 1.65 | 0.51 |
| CCOc1nn([C@@H](C)CO)c2c1/C=C/c1n[nH]c3cnc(cc13)-c1c(C)nn(C)c1OC[C@@H](C)N(C)C2 [Ex. 97, (2S)-2-[(11R,17E)-16-ethoxy-6,8,11,12-tetramethyl-2,8,10,11,12,13-hexahydro-14H-5,3-(azenometheno)tripyrazolo[3,4-f:3′,4′-j:4″,3″-n][1,4]oxazacyclopentadecin-14-yl]propan-1-ol] | 0.4 | 1.77 | 1.39 | 0.04 | 1.08 | 11 | 1.62 | 0.43 | 0.2 |
| CCOc1nn([C@@H](C)CO)c2c1/C=C/c1n[nH]c3cnc(cc13)-c1c(C)nn(C)c1OC[C@@H](C)N(C1CC1)C2 [Ex. 111, (2S)-2-[(11R,17E)-12-cyclopropyl-16-ethoxy-6,8,11-trimethyl-2,8,10,11,12,13-hexahydro-14H-5,3-(azenometheno)tripyrazolo[3,4-f:3′,4′-j:4″,3″-n][1,4]oxazacyclopentadecin-14-yl]propan-1-ol] | 0.78 | 3.12 | 1.52 | 0.11 | 1.06 | 1.46 | 2.08 | 1.11 | 0.43 |
| CCOc1nn(CCO)c2c1/C=C/c1n[nH]c3c(C)nc(cc13)-c1c(C)nn(C)c1O[C@@H](C)[C@H]1CCCN1C2 [Ex. 177, 2-[(8aR,9S,19E)-1-ethoxy-9,11,13,21-tetramethyl-7,8,8a,9,11,17-hexahydro-6H-14,16-(azenometheno)tripyrazolo[3,4-f:3′,4′-j:4″,3″-n]pyrrolo[2,1-c][1,4]oxazacyclopentadecin-3(4H)-yl]ethan-1-ol] | 0.88 | 2.6 | 1.43 | 0.07 | 1.01 | 8.86 | 1.38 | 0.97 | 0.39 |
| CCOc1nn([C@@H](C)CO)c2c1/C=C/c1n[nH]c3c(C)nc(cc13)-c1c(C)nn(C)c1O[C@@H](C)[C@H]1CCCN1C2 [Ex. 179, (2S)-2-[(8aR,9S,19E)-1-ethoxy-9,11,13,21-tetramethyl-7,8,8a,9,11,17-hexahydro-6H-14,16-(azenometheno)tripyrazolo[3,4-f:3′,4′-j:4″,3″-n]pyrrolo[2,1-c][1,4]oxazacyclopentadecin-3(4H)-yl]propan-1-ol] | 0.88 | 1.41 | 0.78 | 0.1 | 0.69 | 8.64 | 1.38 | 1.47 | 0.23 |
| CCOc1nn(C[C@H](C)O)c2c1/C=C/c1n[nH]c3c(C)nc(cc13)-c1c(C)nn(C)c1O[C@@H](C)CN(C)C2 [Ex. 90, (2S)-1-[(10S,17E)-16-ethoxy-6,8,10,12,20-pentamethyl-2,8,10,11,12,13-hexahydro-14H-5,3-(azenometheno)tripyrazolo[3,4-f3′,4′-j:4″,3″-n][1,4]oxazacyclopentadecin-14-yl]propan-2-ol] | 0.61 | 0.97 | 2.37 | 0.06 | 1.26 | 8.44 | 1.1 | 0.48 | 0.58 |
